From ChEMBL document CHEMBL1201862, “PubChem BioAssay data set” (2004)
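96-well plates; 48 h exposure; 5 concentrations. Endpoints by linear interpolation between flanking doses. Not reached: highest tested concentration assigned. GI50 = concentration required for 50% inhibition of growth.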 Activity calls are given as the source filed them. No stated cut-off is given here; in the data, active = GI50 up to about 1.1 µM and inactive = higher.

Key:
Assay in all cases: NCI anticancer screen, dose series, 48 h
[1] = system: 786-0
[2] = system: A498
[3] = system: A549
[4] = system: ACHN
[5] = system: CAKI-1
[6] = system: CCRF-CEM
[7] = system: COLO 205
[8] = system: DLD-1
[9] = system: DMS-114
[10] = system: DMS-273
[11] = system: EKVX
[12] = system: HCC 2998
[13] = system: HCT-116
[14] = system: HCT-15
[15] = system: HL-60
[16] = system: HOP-18
[17] = system: HOP-62
[18] = system: HOP-92
[19] = system: HT-29
[20] = system: IGROV-1
[21] = system: K562
[22] = system: KM-20L2
[23] = system: KM12
[24] = system: LOX IMVI
[25] = system: LXFL 529
[26] = system: M14
[27] = system: MOLT-4
[28] = system: Malme-3M
[29] = system: NCI-H226
[30] = system: NCI-H23
[31] = system: NCI-H460
[32] = system: NCI-H522
[33] = system: OVCAR-4
[34] = system: OVCAR-5
[35] = system: OVCAR-8
[36] = system: RPMI-8226
[37] = system: RXF 393
[38] = system: RXF 631
[39] = system: SF-268
[40] = system: SF-295
[41] = system: SF-539
[42] = system: SK-MEL-28
[43] = system: SK-MEL-2
[44] = system: SK-MEL-5
[45] = system: SK-OV-3
[46] = system: SN12C
[47] = system: SNB-19
[48] = system: SNB-78
[49] = system: SR
[50] = system: SW-620
[51] = system: TK-10
[52] = system: U-251
[53] = system: UACC-257
[54] = system: UACC-62
[55] = system: UO-31
[56] = system: XF498

## COC(=O)C(=O)C(C(=O)C(=O)Nc1cccc(C(C)=O)c1)c1nc2ccc([N+](=O)[O-])cc2nc1O (stereo unspecified)
[1]
  GI50: > 100 µM (inactive)
[2]
  GI50: > 100 µM (inactive)
[3]
  GI50: > 100 µM (inactive)
[4]
  GI50: > 100 µM (inactive)
[5]
  GI50: > 100 µM (inactive)
[6]
  GI50: > 100 µM (inactive)
[7]
  GI50: > 100 µM (inactive)
[8]
  GI50: > 100 µM (inactive)
[9]
  GI50: > 100 µM (inactive)
[10]
  GI50: > 100 µM (inactive)
[11]
  GI50: > 100 µM (inactive)
[12]
  GI50: > 100 µM (inactive)
[13]
  GI50: > 100 µM (inactive)
[14]
  GI50: > 100 µM
[15]
  GI50: 80 µM (inactive)
[16]
  GI50: > 100 µM (inactive)
[17]
  GI50: > 100 µM (inactive)
[18]
  GI50: > 100 µM (inactive)
[19]
  GI50: > 100 µM (inactive)
[20]
  GI50: > 100 µM (inactive)
[21]
  GI50: > 100 µM (inactive)
[22]
  GI50: > 100 µM (inactive)
[23]
  GI50: > 100 µM (inactive)
[24]
  GI50: > 100 µM (inactive)
[25]
  GI50: > 100 µM (inactive)
[26]
  GI50: > 100 µM (inactive)
[27]
  GI50: > 100 µM (inactive)
[28]
  GI50: > 100 µM (inactive)
[29]
  GI50: > 100 µM (inactive)
[30]
  GI50: > 100 µM (inactive)
[31]
  GI50: > 100 µM (inactive)
[32]
  GI50: > 100 µM (inactive)
[33]
  GI50: > 100 µM (inactive)
[34]
  GI50: > 100 µM (inactive)
[35]
  GI50: > 100 µM (inactive)
[36]
  GI50: > 100 µM (inactive)
[37]
  GI50: > 100 µM (inactive)
[38]
  GI50: > 100 µM (inactive)
[39]
  GI50: > 100 µM (inactive)
[40]
  GI50: > 100 µM (inactive)
[41]
  GI50: > 100 µM (inactive)
[42]
  GI50: > 100 µM (inactive)
[43]
  GI50: > 100 µM (inactive)
[44]
  GI50: > 100 µM (inactive)
[45]
  GI50: > 100 µM (inactive)
[46]
  GI50: > 100 µM (inactive)
[47]
  GI50: > 100 µM (inactive)
[48]
  GI50: > 100 µM (inactive)
[49]
  GI50: > 100 µM (inactive)
[50]
  GI50: > 100 µM (inactive)
[51]
  GI50: > 100 µM (inactive)
[52]
  GI50: > 100 µM (inactive)
[53]
  GI50: > 100 µM (inactive)
[54]
  GI50: > 100 µM (inactive)
[55]
  GI50: > 100 µM (inactive)
[56]
  GI50: > 100 µM (inactive)
